# Assays:
# LK^b cells = type: cell-based
# SIIN specific T cell = type: cell-based
substance,measurement,setting,value
"QLE SIINFEKL TEW (QLESIINFEKLTEW; OVA peptide used in the Examples) [Ext SIIN, extended model ovalbumin peptide with three flanking residues at both termini]",presentation of CD8 epitope compared to free peptide loading,LK^b cells,lower
same,activation of T cells compared to free peptide,SIIN specific T cell,equivalent

# Source: patent US12605439B2 (priority 2017, dated 2026)
